These results are taken from patent US10507212B2, “Method for use of homopiperazinium compounds in the treatment of cancer” (UNIVERSITÉ LAVAL, priority 2014, dated 2019).

One assay relates to SK-BR-3. The assay is described as follows: Anti-proliferative MTT assay, SK-BR-3. It is filed as cell-based. To be noted: Homo sapiens. How it is done: (§1) The effect of ASM-024 on the growth of MCF7, SK-BR-3, MDA-MB-231, BT-474 (mammary adenocarcinomas), SK-OV/3 (ovary adenocarcinoma), PC3 (prostate adenocarcinoma) SK-MEL-28(skin melanoma) and C6 (tumor cell glioma) was evaluated. Cells were cultured in RPMI medium and incubated with different concentrations of ASM-024. Cell proliferation was measured on days 3 and 6 by the MTT colorimetric assay. Absorbance at 576-690 nm was analyzed with a microplate reader and expressed as optical density (OD) and as a percentage of the value of corresponding untreated cells. The IC50 was determined as the drug concentration required to inhibit cell growth by 50% from a plot of percent cell viability from control untreated cells versus treated cells.

Assay [1] has as its system A549 adenocarcinoma cell line. Briefly: Cell proliferation assay, A549 (MTT). To be noted: for IC50: Tosylate. How it is done: In vitro experiments were conducted on four cancer cell lines: the A549 adenocarcinoma cell line, the H520 squamous cell carcinoma the H82 small cell lung carcinoma and Calu 3 lung adenocarcinoma. The A549 tumor cells, were plated at a density of 1.5×10^4 cells per mL and let to adhere on 96-well microplates in F12K cell culture medium enriched with 10% fetal calf serum (FCS). The H520, H82 and Calu 3 tumor cells were plated at a density of 5×10^4 cells per mL in RPMI+10% FCS. After 24 h in culture, the medium was changed and cells were exposed to ASM-024 at concentrations ranging from 10^−7M to 10^−3M (FIGS. 1A-1C). After 3 and 6 days in culture, cell growth was quantified using the MTT colorimetric assay (M2128, Sigma) at 575-690 nm or the Cell Titer fluorescence assay (G8080, Promega) at 560/590 nm.
In an another set of experiments, a series of 16 other homopiperazinium compounds, in addition to ASM-024, were tested for their anti-proliferative effect on the four tumor cell lines described above after up to 6 days in culture at concentrations of 10^-7M to 10^-3M. (FIGS. 4A-4E) Cell growth was quantified using the MTT colorimetric assay for the A-549, H520 and Calu 3 cell lines and the CellTiter Fluorescence assay.for the H82 tumor cell line These are established method of determining viable cell number in proliferation studies.

Another assay has as its system SK-MEL-28. The assay is described as follows: Anti-proliferative MTT assay, SK-MEL-28. It is filed as cell-based. To be noted: Homo sapiens. How it is done:
as §1

The next assay has as its system SK-OV/3. The assay is described as follows: Anti-proliferative MTT assay, SK-OV/3. The format is cell-based. To be noted: Homo sapiens. The method, then: as §1
For orientation: Tetrazolium assays rely on reduction of a dye to a coloured formazan, in cell work by metabolically active cells.

Read-outs that look alike come from different tables or passages of the source.

Turning to `CC[N+]1(CC)CCCN(c2ccccc2)CC1.Cc1ccc(S(=O)(=O)[O-])cc1` [ASM-024, 1,1-Diethyl-4-phenyl-homopiperazinium Tosylate], the concentration for half-maximal inhibition (IC50) – broadly, the concentration needed to halve the response being measured – in the assay with SK-BR-3 (72 h, SK-BR-3, day 3, read-out: IC50 Day 3) was greater than 1000 µM; in the assay on SK-BR-3 (144 h, SK-BR-3, day 6, read-out: IC50 Day 6), 197 ± 67 µM; in assay [1] (read-out: IC50 Day 3, A549, day 3 in culture), 56 ± 20 µM; in assay [1] (read-out: IC50 Day 6, A549, day 6 in culture), 59 ± 21 µM; in the assay on SK-MEL-28 (72 h, SK-MEL-28, day 3, read-out: IC50 Day 3), greater than 800 µM; in the assay on SK-MEL-28 (144 h, SK-MEL-28, day 6, read-out: IC50 Day 6), 259 ± 63 µM. Besides, the IC50 in the assay with SK-OV/3 (72 h, SK-OV/3, day 3, read-out: IC50 Day 3) was greater than 600 µM; with SK-OV/3 (144 h, SK-OV/3, day 6, read-out: IC50 Day 6) it was 618 ± 125 µM. Besides, the “cell proliferation / cell growth inhibition (in words)” value in assay [1] (A549, day 3 and day 6, text on figures) is listed as “dose-dependent decrease in cell proliferation”.
